System: Sprague-Dawley rats
Assay: Clinical chemistry
Format: in vivo, Rattus norvegicus
Parameters: key to Cholesterol, Dose response / Triglyserides, Dose response / Glucose, Dose response / Albumin, Dose response / K, Dose response / Total bilirubin, Dose response: D: significant dose response (for results, see Table 2); T: significant trend
Settings: for Alkaline phosphatase, CED / Alkaline phosphatase, CED-L / Chlolesterol, CED / Chlolesterol, CED-L / Glucose, CED / Glucose, CED-L / Potassium, CED / Potassium, CED-L / Total Bilirubin, CED / Total Bilirubin, CED-L / Albumin, CED / Albumin, CED-L / Total protein, CED / Total protein, CED-L / Triglycerides, CED / Triglycerides, CED-L: total dose based
Procedure: Spectrophotometric methods were used for the determination of serum total calcium, cholesterol, creatinine, glucose, triglycerides and urea. Serum sodium, potassium and chloride concentrations were measured directly by ion selective electrodes. The analyses were performed by a clinical chemistry analyzer (Konelab 30i, ThermoFisher Scientific, Vantaa, Finland). Plasma lactate dehydrogenase (LD) activity was measured according to the recommendations of the International Federation of Clinical Chemistry (IFCC 1994/I) using Konelab 60i clinical chemistry analyzer. Methods and results for liver related parameters (serum alanine aminotransferase [ALT] activity, alkaline phosphatase [ALP] activity, albumin, total protein and total bilirubin are reported separately.
Data were also analyzed using the BMD method, which is based on dose-response modeling of the full data set using a nested family of exponential and Hill models. The analyses were done on data of males and females combined, using sex as a covariate. […] In that case, different Critical Effect Doses (CEDs) and CEDs at the lowest bound of the confidence interval (CED-L) were generated for each sex. If no difference between sexes is detected, a CED and CED-Ls for the combined data is generated. However, this was also done if the curve fits are close, and separate analyses for males and females were then performed manually. CEDs and CED-Ls were calculated at the predefined Critical Effect Size (CES) of 5% (EFSA standard) or 10%.

[1] = females, total dose 1700 mg/kg bw
[2] = females, adipose tissue concentration based
[3] = males, total dose 0-1700 mg/kg bw
[4] = males, total dose 1000 mg/kg bw
[5] = males, total dose 1700 mg/kg bw
[6] = males, adipose tissue concentration based

Clc1cc(Cl)c(-c2cc(Cl)c(Cl)c(Cl)c2Cl)cc1Cl [PCB 180, 2,2′,3′,4,4′,5,5′-heptachlorobiphenyl] was tested, and the Creatinine [1] was 52.5 µmol/L, the Glucose [1] was 12.4 mmol/L and the K [1] was 5.30 mmol/L. The Na [1] was 143.2 mmol/L, the “Total Ca” value [1] was 3.49 mmol/L and the Total bilirubin [1] was 1.37 µmol/L. The Triglyserides [1] was 0.88 mmol/L, the Urea [1] was 10.0 mmol/L and the “Alkaline phosphatase, CED” value (females, CES 5%) was 67.6 mg/kg bw. The “Alkaline phosphatase, CED-L” value (females, CES 5%) was 30.1 mg/kg bw, the “Chlolesterol, CED” value (females, CES 5%) was 192 mg/kg bw and the “Chlolesterol, CED-L” value (females, CES 5%) was 167 mg/kg bw. The “Glucose, CED” value (females, CES 5%) was 677 mg/kg bw, the “Glucose, CED-L” value (females, CES 5%) was 408 mg/kg bw and the “Potassium, CED” value (females, CES 5%) was 1210 mg/kg bw. The “Potassium, CED-L” value (females, CES 5%) was 786 mg/kg bw, the “Total Bilirubin, CED” value (females, CES 5%) was 4.12 mg/kg bw and the “Total Bilirubin, CED-L” value (females, CES 5%) was 0.67 mg/kg bw. The “Alkaline phosphatase, CED” value (females, CES 10%) was 154 mg/kg bw, the “Alkaline phosphatase, CED-L” value (females, CES 10%) was 68.5 mg/kg bw and the “Chlolesterol, CED” value (females, CES 10%) was 375 mg/kg bw. For the same molecule, the “Chlolesterol, CED-L” value (females, CES 10%) was 326 mg/kg bw, the “Glucose, CED” value (females, CES 10%) was 1390 mg/kg bw and the “Glucose, CED-L” value (females, CES 10%) was 839 mg/kg bw. For the same molecule, the “Potassium, CED” value (females, CES 10%) was 2490 mg/kg bw, the “Potassium, CED-L” value (females, CES 10%) was 1614 mg/kg bw and the “Total Bilirubin, CED” value (females, CES 10%) was 10.3 mg/kg bw. The “Total Bilirubin, CED-L” value (females, CES 10%) was 1.63 mg/kg bw, the “Serum ALP activity, CED” value [2] was 308 µg/g lipid and the “Serum cholesterol, CED” value [2] was 640 µg/g lipid. The “Albumin, Dose response” value [3] was “T”, the “Cholesterol, Dose response” value [3] was “T” and the “Glucose, Dose response” value [3] was “T”. For the same molecule, the “Triglyserides, Dose response” value [3] was “T”, the Albumin (males, total dose 3 mg/kg bw) was 32.6 g/L and the Cholesterol (males, total dose 3 mg/kg bw) was 2.72 mmol/L. It also gave a Cl (males, total dose 3 mg/kg bw) of 96.9 mmol/L, a Creatinine (males, total dose 3 mg/kg bw) of 54.2 µmol/L and a Glucose (males, total dose 3 mg/kg bw) of 18.9 mmol/L. For the same molecule, the K (males, total dose 3 mg/kg bw) was 5.76 mmol/L, the Na (males, total dose 3 mg/kg bw) was 143.1 mmol/L and the “Total Ca” value (males, total dose 3 mg/kg bw) was 3.43 mmol/L. For the same molecule, the Total bilirubin (males, total dose 3 mg/kg bw) was 2.02 µmol/L, the Triglyserides (males, total dose 3 mg/kg bw) was 0.84 mmol/L and the Urea (males, total dose 3 mg/kg bw) was 9.0 mmol/L. The Albumin (males, total dose 10 mg/kg bw) was 32.9 g/L, the Cholesterol (males, total dose 10 mg/kg bw) was 2.84 mmol/L and the Cl (males, total dose 10 mg/kg bw) was 96.8 mmol/L. The Creatinine (males, total dose 10 mg/kg bw) was 51.5 µmol/L, the Glucose (males, total dose 10 mg/kg bw) was 14.9 mmol/L and the K (males, total dose 10 mg/kg bw) was 6.12 mmol/L. The Na (males, total dose 10 mg/kg bw) was 143.0 mmol/L, the “Total Ca” value (males, total dose 10 mg/kg bw) was 3.41 mmol/L and the Total bilirubin (males, total dose 10 mg/kg bw) was 1.58 µmol/L. The Triglyserides (males, total dose 10 mg/kg bw) was 0.88 mmol/L, the Urea (males, total dose 10 mg/kg bw) was 8.2 mmol/L and the Albumin (males, total dose 30 mg/kg bw) was 32.8 g/L. For the same molecule, the Cholesterol (males, total dose 30 mg/kg bw) was 2.74 mmol/L, the Cl (males, total dose 30 mg/kg bw) was 96.0 mmol/L and the Creatinine (males, total dose 30 mg/kg bw) was 53.8 µmol/L. For the same molecule, the Glucose (males, total dose 30 mg/kg bw) was 18.6 mmol/L, the K (males, total dose 30 mg/kg bw) was 5.93 mmol/L and the Na (males, total dose 30 mg/kg bw) was 142.9 mmol/L. The “Total Ca” value (males, total dose 30 mg/kg bw) was 3.44 mmol/L, the Total bilirubin (males, total dose 30 mg/kg bw) was 1.46 µmol/L and the Triglyserides (males, total dose 30 mg/kg bw) was 0.65 mmol/L. For the same molecule, the Urea (males, total dose 30 mg/kg bw) was 9.3 mmol/L, the Albumin (males, total dose 100 mg/kg bw) was 33.1 g/L and the Cholesterol (males, total dose 100 mg/kg bw) was 3.56 mmol/L. The Cl (males, total dose 100 mg/kg bw) was 96.3 mmol/L, the Creatinine (males, total dose 100 mg/kg bw) was 53.4 µmol/L and the Glucose (males, total dose 100 mg/kg bw) was 17.8 mmol/L. For the same molecule, the K (males, total dose 100 mg/kg bw) was 5.74 mmol/L, the Na (males, total dose 100 mg/kg bw) was 143.0 mmol/L and the “Total Ca” value (males, total dose 100 mg/kg bw) was 3.58 mmol/L. For the same molecule, the Total bilirubin (males, total dose 100 mg/kg bw) was 1.54 µmol/L, the Triglyserides (males, total dose 100 mg/kg bw) was 0.34 mmol/L and the Urea (males, total dose 100 mg/kg bw) was 9.2 mmol/L. For the same molecule, the Albumin (males, total dose 300 mg/kg bw) was 32.5 g/L, the Cholesterol (males, total dose 300 mg/kg bw) was 3.44 mmol/L and the Cl (males, total dose 300 mg/kg bw) was 96.3 mmol/L. For the same molecule, the Creatinine (males, total dose 300 mg/kg bw) was 52.6 µmol/L, the Glucose (males, total dose 300 mg/kg bw) was 17.7 mmol/L and the K (males, total dose 300 mg/kg bw) was 5.73 mmol/L. For the same molecule, the Na (males, total dose 300 mg/kg bw) was 142.7 mmol/L, the “Total Ca” value (males, total dose 300 mg/kg bw) was 3.46 mmol/L and the Total bilirubin (males, total dose 300 mg/kg bw) was 1.73 µmol/L. The Triglyserides (males, total dose 300 mg/kg bw) was 0.36 mmol/L, the Urea (males, total dose 300 mg/kg bw) was 9.0 mmol/L and the Albumin [4] was 34.2 g/L. It also gave a Cholesterol [4] of 4.35 mmol/L, a Cl [4] of 95.7 mmol/L and a Creatinine [4] of 53.8 µmol/L. For the same molecule, the Glucose [4] was 11.8 mmol/L, the K [4] was 6.12 mmol/L and the Na [4] was 142.6 mmol/L. For the same molecule, the “Total Ca” value [4] was 3.45 mmol/L, the Total bilirubin [4] was 1.84 µmol/L and the Triglyserides [4] was 0.32 mmol/L. For the same molecule, the Urea [4] was 9.9 mmol/L, the Albumin [5] was 34.4 g/L and the Cholesterol [5] was 5.15 mmol/L. The Cl [5] was 97.7 mmol/L, the Creatinine [5] was 55.4 µmol/L and the Glucose [5] was 12.7 mmol/L. The K [5] was 5.89 mmol/L, the Na [5] was 143.4 mmol/L and the “Total Ca” value [5] was 3.53 mmol/L. It also gave a Total bilirubin [5] of 1.87 µmol/L, a Triglyserides [5] of 0.44 mmol/L and a Urea [5] of 9.1 mmol/L. For the same molecule, the “Albumin, CED” value (males, CES 5%) was 1550 mg/kg bw, the “Albumin, CED-L” value (males, CES 5%) was 1090 mg/kg bw and the “Alkaline phosphatase, CED” value (males, CES 5%) was 542 mg/kg bw. For the same molecule, the “Alkaline phosphatase, CED-L” value (males, CES 5%) was 327 mg/kg bw, the “Chlolesterol, CED” value (males, CES 5%) was 38.3 mg/kg bw and the “Chlolesterol, CED-L” value (males, CES 5%) was 19.5 mg/kg bw. The “Glucose, CED” value (males, CES 5%) was 198 mg/kg bw, the “Glucose, CED-L” value (males, CES 5%) was 146 mg/kg bw and the “Total protein, CED” value (males, CES 5%) was 255 mg/kg bw. The “Total protein, CED-L” value (males, CES 5%) was 134 mg/kg bw, the “Triglycerides, CED” value (males, CES 5%) was 3.31 mg/kg bw and the “Triglycerides, CED-L” value (males, CES 5%) was 1.90 mg/kg bw. The “Albumin, CED” value (males, CES 10%) was 3040 mg/kg bw, the “Albumin, CED-L” value (males, CES 10%) was 2130 mg/kg bw and the “Alkaline phosphatase, CED” value (males, CES 10%) was 1110 mg/kg bw. The “Alkaline phosphatase, CED-L” value (males, CES 10%) was 672 mg/kg bw, the “Chlolesterol, CED” value (males, CES 10%) was 79.0 mg/kg bw and the “Chlolesterol, CED-L” value (males, CES 10%) was 40.4 mg/kg bw. The “Glucose, CED” value (males, CES 10%) was 408 mg/kg bw, the “Glucose, CED-L” value (males, CES 10%) was 300 mg/kg bw and the “Total protein, CED” value (males, CES 10%) was 702 mg/kg bw. The “Total protein, CED-L” value (males, CES 10%) was 379 mg/kg bw, the “Triglycerides, CED” value (males, CES 10%) was 6.92 mg/kg bw and the “Triglycerides, CED-L” value (males, CES 10%) was 3.97 mg/kg bw. The “Serum chlolesterol, CED-L” value [6] was 91400 ng/g lipid, the “Serum cholesterol, CED” value [6] was 177 µg/g lipid and the “Serum total protein, CED” value [6] was 1080 µg/g lipid. The “Serum triglyceride, CED” value [6] was 12.5 µg/g lipid and the “Serum triglycerids, CED-L” value [6] was 7260 ng/g lipid.

From PMC4138103 (PLoS ONE, 2014)
